Data reported in PubChem BioAssay AID1918944 (Molecular Pharmacology Branch, DTP, NCI, 2023).
Several values for one entry are separate records, joined by “and”; a condition that tells them apart may be missing. Equal values may be shown once.

System: 786-0 complex spheroid viability
Assay: Anticancer human tumor 786-0 cell line growth inhibition;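 further: spheroids exposed to agents for seven days before readout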
Conditions: for viability, T/C: stronger effect = lower value
Outline: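 Complex spheroids of tumor cells with HUVEC and human MSCs, exposed to iadademstat combined with other agents. Each agent tested in half-log steps from near clinical Cmax (else 10 microM top), DMSO ≤0.25%.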

[1] = curve of first compound, second compound 0.1 µM
[2] = curve of first compound, second compound 0.316 µM
[3] = curve of first compound, second compound 1 µM
[4] = curve of first compound, second compound 3.16 µM
[5] = curve of first compound, second compound 10 µM

O=C(C=Cn1cnc(-c2cc(C(F)(F)F)cc(C(F)(F)F)c2)n1)NNc1cnccn1 + NC1CC1c1ccc(-c2cccc(O)c2)cc1
IC50 [1]: 37.7 nM | IC50 [2]: 34.3 nM | IC50 [3]: 40 nM | IC50 [4]: 37.5 nM | IC50 [5]: 35.6 nM | viability, T/C (second compound 0.1 µM, first compound 0.00316 µM): 92.5% | viability, T/C (second compound 0.1 µM, first compound 0.01 µM): 72.2% | viability, T/C (second compound 0.1 µM, first compound 0.0316 µM): 51.1% | viability, T/C (second compound 0.1 µM, first compound 0.1 µM): 39.1% | viability, T/C (second compound 0.1 µM, first compound 0.316 µM): 28.9% | viability, T/C (second compound 0.1 µM, first compound 1 µM): 25.2% | viability, T/C (second compound 0.316 µM, first compound 0.00316 µM): 100% | viability, T/C (second compound 0.316 µM, first compound 0.01 µM): 72.5% | viability, T/C (second compound 0.316 µM, first compound 0.0316 µM): 51.5% | viability, T/C (second compound 0.316 µM, first compound 0.1 µM): 36.7% | viability, T/C (second compound 0.316 µM, first compound 0.316 µM): 29.9% | viability, T/C (second compound 0.316 µM, first compound 1 µM): 26.2% | viability, T/C (second compound 1 µM, first compound 0.00316 µM): 95.7% | viability, T/C (second compound 1 µM, first compound 0.01 µM): 71.3% | viability, T/C (second compound 1 µM, first compound 0.0316 µM): 53.4% | viability, T/C (second compound 1 µM, first compound 0.1 µM): 37.7% | viability, T/C (second compound 1 µM, first compound 0.316 µM): 31.2% | viability, T/C (second compound 1 µM, first compound 1 µM): 22.7% | viability, T/C (second compound 3.16 µM, first compound 0.00316 µM): 99.4% | viability, T/C (second compound 3.16 µM, first compound 0.01 µM): 73.5% | viability, T/C (second compound 3.16 µM, first compound 0.0316 µM): 52.4% | viability, T/C (second compound 3.16 µM, first compound 0.1 µM): 38.1% | viability, T/C (second compound 3.16 µM, first compound 0.316 µM): 29.1% | viability, T/C (second compound 3.16 µM, first compound 1 µM): 26.3% | viability, T/C (second compound 10 µM, first compound 0.00316 µM): 108% | viability, T/C (second compound 10 µM, first compound 0.01 µM): 67.8% | viability, T/C (second compound 10 µM, first compound 0.0316 µM): 55% | viability, T/C (second compound 10 µM, first compound 0.1 µM): 39.4% | viability, T/C (second compound 10 µM, first compound 0.316 µM): 29.7% | viability, T/C (second compound 10 µM, first compound 1 µM): 25.4%

COc1ccc([C@@H](O)c2cc(-c3ncnc4cc(N5CCOCC5)ccc34)c(F)cc2Cl)nn1
viability, T/C (compound 0.0316 µM): 105% and 102% | viability, T/C (compound 0.1 µM): 105% and 103% | viability, T/C (compound 0.316 µM): 107% and 99.3% | viability, T/C (compound 1 µM): 94.2% and 89.3% | viability, T/C (compound 3.16 µM): 66.3% and 59.2% | viability, T/C (compound 10 µM): 42.8% and 42.1% | IC50 (curve of compound): 7010 nM and 5890 nM

COc1cc(C2c3cc4c(cc3C(OC3OC5COC(C)OC5C(O)C3O)C3COC(=O)C23)OCO4)cc(OC)c1O (configuration not stated) + NC1CC1c1ccc(-c2cccc(O)c2)cc1
IC50 [1]: 212 nM | IC50 [2]: 247 nM | IC50 [3]: 174 nM | IC50 [4]: 183 nM | IC50 [5]: 162 nM | viability, T/C (second compound 0.1 µM, first compound 0.00949 µM): 96.6% | viability, T/C (second compound 0.1 µM, first compound 0.03 µM): 88.2% | viability, T/C (second compound 0.1 µM, first compound 0.0949 µM): 63.9% | viability, T/C (second compound 0.1 µM, first compound 0.3 µM): 42.5% | viability, T/C (second compound 0.1 µM, first compound 0.949 µM): 26.9% | viability, T/C (second compound 0.1 µM, first compound 3 µM): 12.1% | viability, T/C (second compound 0.316 µM, first compound 0.00949 µM): 105% | viability, T/C (second compound 0.316 µM, first compound 0.03 µM): 95.8% | viability, T/C (second compound 0.316 µM, first compound 0.0949 µM): 66.2% | viability, T/C (second compound 0.316 µM, first compound 0.3 µM): 47.1% | viability, T/C (second compound 0.316 µM, first compound 0.949 µM): 25.8% | viability, T/C (second compound 0.316 µM, first compound 3 µM): 9.93% | viability, T/C (second compound 1 µM, first compound 0.00949 µM): 93.1% | viability, T/C (second compound 1 µM, first compound 0.03 µM): 89.4% | viability, T/C (second compound 1 µM, first compound 0.0949 µM): 57.9% | viability, T/C (second compound 1 µM, first compound 0.3 µM): 40.2% | viability, T/C (second compound 1 µM, first compound 0.949 µM): 22% | viability, T/C (second compound 1 µM, first compound 3 µM): 10.9% | viability, T/C (second compound 3.16 µM, first compound 0.00949 µM): 90.7% | viability, T/C (second compound 3.16 µM, first compound 0.03 µM): 82.9% | viability, T/C (second compound 3.16 µM, first compound 0.0949 µM): 59.2% | viability, T/C (second compound 3.16 µM, first compound 0.3 µM): 43.3% | viability, T/C (second compound 3.16 µM, first compound 0.949 µM): 20.8% | viability, T/C (second compound 3.16 µM, first compound 3 µM): 10.3% | viability, T/C (second compound 10 µM, first compound 0.00949 µM): 80.6% | viability, T/C (second compound 10 µM, first compound 0.03 µM): 76.6% | viability, T/C (second compound 10 µM, first compound 0.0949 µM): 54.3% | viability, T/C (second compound 10 µM, first compound 0.3 µM): 42.5% | viability, T/C (second compound 10 µM, first compound 0.949 µM): 22.6% | viability, T/C (second compound 10 µM, first compound 3 µM): 8.94%
